Laboratory results from ChEMBL document CHEMBL1201862, “PubChem BioAssay data set” (2004).
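Each compound was tested at five concentrations against cells in 96-well plates for 48 hours. GI50 marks 50% less growth.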 Activity calls are given as the source filed them. Cut-off read from the data, not from the text of the source: active = GI50 up to about 1.1 µM and inactive = higher.

How the values were obtained:
Test in all cases: NCI tumour cell line growth inhibition, 48 h
A498 = system: A498
ACHN = system: ACHN
CAKI-1 = system: CAKI-1
EKVX = system: EKVX
HCT-116 = system: HCT-116
HL-60 = system: HL-60
M19-MEL = system: M19-MEL
NCI-H226 = system: NCI-H226
OVCAR-5 = system: OVCAR-5
RPMI-8226 = system: RPMI-8226
SK-MEL-2 = system: SK-MEL-2
SN12C = system: SN12C
TK-10 = system: TK-10
UACC-62 = system: UACC-62
BT-549 = system: BT-549
DU-145 = system: DU-145
MCF7 = system: MCF7
MDA-MB-435 = system: MDA-MB-435
MDA-N = system: MDA-N
PC-3 = system: PC-3

Row | Structure (SMILES) | GI50 (A498) | GI50 (ACHN) | GI50 (CAKI-1) | GI50 (EKVX) | GI50 (HCT-116) | GI50 (HL-60) | GI50 (M19-MEL) | GI50 (NCI-H226) | GI50 (OVCAR-5) | GI50 (RPMI-8226) | GI50 (SK-MEL-2) | GI50 (SN12C) | GI50 (TK-10) | GI50 (UACC-62) | GI50 (BT-549) | GI50 (DU-145) | GI50 (MCF7) | GI50 (MDA-MB-435) | GI50 (MDA-N) | GI50 (PC-3)
1 | O=c1cc(CO)oc2c3c(cc(O)c12)OCC(COC1OC(CO)C(O)C(O)C1O)=CC3 (stereo not given) | > 100 µM (inactive) | > 100 µM (inactive) | > 100 µM (inactive) | > 100 µM (inactive) | > 100 µM (inactive) | > 100 µM (inactive) | > 100 µM (inactive) | > 100 µM (inactive) | > 100 µM (inactive) | > 100 µM (inactive) | > 100 µM (inactive) | > 100 µM (inactive) | > 100 µM (inactive) | > 100 µM (inactive) | – | – | – | – | – | –
2 | c1ccc(C(c2ccccc2)c2ccccn2)cc1 | > 100 µM (inactive) | > 100 µM (inactive) | > 100 µM (inactive) | > 100 µM (inactive) | > 100 µM (inactive) | – | > 100 µM (inactive) | > 100 µM (inactive) | > 100 µM (inactive) | 66.1 µM (inactive) | > 100 µM (inactive) | > 100 µM (inactive) | > 100 µM (inactive) | > 100 µM (inactive) | – | – | – | – | – | –
3 | COC(=O)C1=C(C(=O)OC)C2(c3ccccc3)OC1(c1ccccc1)c1cc3ccccc3cc12 | – | 1.68 µM (inactive) | 1.29 µM (inactive) | 1.8 µM (inactive) | – | 0.45 µM (active) | 1.98 µM (inactive) | – | 1.91 µM (inactive) | 0.764 µM (active) | 1.64 µM (inactive) | 1.9 µM (inactive) | 2.05 µM (inactive) | 1.85 µM (inactive) | – | – | – | – | – | –
4 | CCO/C=C1\N=C(c2ccc(Cl)c(Cl)c2)OC1=O | 27 µM (inactive) | > 100 µM (inactive) | > 100 µM (inactive) | 41 µM (inactive) | – | > 100 µM (inactive) | > 100 µM (inactive) | 30.5 µM (inactive) | > 100 µM (inactive) | > 100 µM (inactive) | > 100 µM (inactive) | > 100 µM (inactive) | > 100 µM (inactive) | > 100 µM (inactive) | – | – | – | – | – | –
5 | Cc1ccc(/C=C2\CCCCC2=O)cc1 | > 100 µM (inactive) | 48.1 µM (inactive) | 42.7 µM (inactive) | > 100 µM (inactive) | 43.4 µM (inactive) | 19 µM (inactive) | > 100 µM (inactive) | – | – | – | – | 97.5 µM (inactive) | > 100 µM (inactive) | > 100 µM (inactive) | – | – | – | – | – | –
6 | CCc1ccccc1NC(=O)CC1NC(=O)CS1 (stereo not given) | > 100 µM (inactive) | – | > 100 µM (inactive) | > 100 µM (inactive) | > 100 µM (inactive) | > 100 µM (inactive) | > 100 µM (inactive) | > 100 µM (inactive) | > 100 µM (inactive) | > 100 µM (inactive) | > 100 µM (inactive) | > 100 µM (inactive) | > 100 µM (inactive) | > 100 µM (inactive) | – | – | – | – | – | –
7 | COC(=O)C(=O)C(C(=O)C(=O)Nc1cc([N+](=O)[O-])ccc1C#N)c1nc2ccccc2nc1O (stereo not given) | – | > 100 µM (inactive) | > 100 µM (inactive) | 35.5 µM (inactive) | > 100 µM (inactive) | > 100 µM (inactive) | > 100 µM (inactive) | > 100 µM (inactive) | – | – | – | > 100 µM (inactive) | > 100 µM (inactive) | > 100 µM (inactive) | – | – | – | – | – | –
8 | CC(=O)O[C@H]1C(=O)[C@@]2(C)C([C@H](OC(=O)c3ccccc3)[C@]3(O)C[C@H](OC(=O)[C@H](O)[C@H](NC(=O)c4ccccc4)c4ccc(Cl)cc4)C(C)=C1C3(C)C)C1(OC(C)=O)CO[C@@H]1C[C@@H]2O (stereo not given in full) | 0.0256 µM (active) | 0.261 µM (active) | 0.151 µM (active) | 0.769 µM (active) | 0.000113 µM (active) | < 0.0001 µM (active) | 0.000302 µM (active) | 0.00229 µM (active) | 0.00294 µM (active) | 0.000157 µM (active) | 0.00594 µM (active) | 0.000841 µM (active) | 0.0226 µM (active) | 0.000376 µM (active) | – | – | – | – | – | –
9 | CC(CCc1ccc2c(c1)c(N)c1ccc(N)cc1[n+]2[O-])CC(C)(C)C (stereo not given) | 1.89 µM (inactive) | 1.73 µM (inactive) | 1.47 µM (inactive) | 1.67 µM (inactive) | 1.93 µM (inactive) | 1.3 µM (inactive) | 1.44 µM (inactive) | 1.85 µM (inactive) | 1.48 µM (inactive) | 1.92 µM (inactive) | 1.77 µM (inactive) | 1.79 µM (inactive) | 1.83 µM (inactive) | 1.45 µM (inactive) | – | – | – | – | – | –
10 | COC(=O)c1c(N)n[nH]c1N | > 100 µM (inactive) | – | > 100 µM (inactive) | > 100 µM (inactive) | > 100 µM (inactive) | > 100 µM (inactive) | > 100 µM (inactive) | – | – | > 100 µM (inactive) | > 100 µM (inactive) | > 100 µM (inactive) | > 100 µM (inactive) | 77.6 µM (inactive) | – | – | – | – | – | –
11 | Clc1ccc(C(n2cc(Br)cn2)n2cc(Br)cn2)cc1 | 18.3 µM (inactive) | 14.5 µM (inactive) | 11.1 µM (inactive) | 19.7 µM (inactive) | – | 17.8 µM (inactive) | 16.9 µM (inactive) | 8.91 µM (inactive) | 16 µM (inactive) | 19.9 µM (inactive) | 16.8 µM (inactive) | 16.8 µM (inactive) | 17.4 µM (inactive) | 13.4 µM (inactive) | – | – | – | – | – | –
12 | Cc1c2n(c(=O)[nH]c1=O)C1OC(CO)C(N=[N+]=[N-])C1O2 (stereo not given) | > 100 µM (inactive) | > 100 µM (inactive) | > 100 µM (inactive) | 55.3 µM (inactive) | > 100 µM (inactive) | > 100 µM (inactive) | > 100 µM (inactive) | > 100 µM (inactive) | – | > 100 µM (inactive) | > 100 µM (inactive) | > 100 µM (inactive) | > 100 µM (inactive) | > 100 µM (inactive) | – | – | – | – | – | –
13 | CC1(C)c2ccccc2N2C(c3ccccc3)=NOC21C (stereo not given) | > 100 µM (inactive) | > 100 µM (inactive) | > 100 µM (inactive) | > 100 µM (inactive) | > 100 µM (inactive) | > 100 µM (inactive) | > 100 µM (inactive) | > 100 µM (inactive) | > 100 µM (inactive) | > 100 µM (inactive) | > 100 µM (inactive) | > 100 µM (inactive) | > 100 µM (inactive) | > 100 µM (inactive) | – | – | – | – | – | –
14 | CCCOP1(=O)C=C(C)C(Cl)=C(C)C1 (stereo not given) | – | 21.4 µM (inactive) | – | 74.3 µM (inactive) | 18 µM (inactive) | 22.3 µM (inactive) | 21 µM (inactive) | 20.9 µM (inactive) | 29.8 µM (inactive) | 12 µM (inactive) | 6.11 µM (inactive) | 20.2 µM (inactive) | 23.1 µM (inactive) | 15 µM (inactive) | – | – | – | – | – | –
15 | CN(CC1NCCCC1O)C12CC3CC(CC(C3)C1)C2 (stereo not given) | > 100 µM (inactive) | > 100 µM (inactive) | > 100 µM (inactive) | > 100 µM (inactive) | – | > 100 µM (inactive) | > 100 µM (inactive) | > 100 µM (inactive) | > 100 µM (inactive) | > 100 µM (inactive) | – | > 100 µM (inactive) | > 100 µM (inactive) | > 100 µM (inactive) | – | – | – | – | – | –
16 | Cc1cc(Cl)ccc1NC(=O)C1C(=O)N(c2ccc(Cl)cc2C)C(=O)/C1=N\N (stereo not given) | 28.3 µM (inactive) | 34.1 µM (inactive) | 35.6 µM (inactive) | 57.5 µM (inactive) | 30.5 µM (inactive) | 24.5 µM (inactive) | 43.2 µM (inactive) | 27 µM (inactive) | 60.5 µM (inactive) | 25.4 µM (inactive) | 27 µM (inactive) | 36.6 µM (inactive) | 34.3 µM (inactive) | 35.8 µM (inactive) | – | – | – | – | – | –
17 | COc1cc2c(cc1O)C1C(O)C(O)C=C3CCN(C2)C31 (stereo not given) | – | 1.85 µM (inactive) | 1.9 µM (inactive) | 3.84 µM (inactive) | 0.158 µM (active) | 2.66 µM (inactive) | 2.72 µM (inactive) | 2.55 µM (inactive) | 4.39 µM (inactive) | 3.58 µM (inactive) | 1.83 µM (inactive) | 2.84 µM (inactive) | 2.65 µM (inactive) | 1.69 µM (inactive) | – | – | – | – | – | –
18 | NC(=S)N/N=C1\C(=O)N(CCc2ccccc2)C(=O)C1C(=O)NCCc1ccccc1 (stereo not given) | > 100 µM (inactive) | > 100 µM (inactive) | > 100 µM (inactive) | > 100 µM (inactive) | > 100 µM (inactive) | – | > 100 µM (inactive) | > 100 µM (inactive) | > 100 µM (inactive) | > 100 µM (inactive) | > 100 µM (inactive) | > 100 µM (inactive) | > 100 µM (inactive) | > 100 µM (inactive) | – | – | – | – | – | –
19 | Cc1ccccc1/N=N/c1ccc(N/N=C2/CCCNC2=O)c(C)c1 | > 100 µM (inactive) | > 100 µM (inactive) | > 100 µM (inactive) | 88.5 µM (inactive) | > 100 µM (inactive) | 8.55 µM (inactive) | – | > 100 µM (inactive) | > 100 µM (inactive) | > 100 µM (inactive) | > 100 µM (inactive) | > 100 µM (inactive) | > 100 µM (inactive) | > 100 µM (inactive) | > 100 µM (inactive) | > 100 µM (inactive) | 64.1 µM (inactive) | > 100 µM (inactive) | > 100 µM (inactive) | > 100 µM (inactive)
20 | CN1CC=C(OP(=O)(NCc2ccccc2)N(CCCl)CCCl)CC1 (stereo not given) | > 100 µM (inactive) | > 100 µM (inactive) | > 100 µM (inactive) | > 100 µM (inactive) | > 100 µM (inactive) | > 100 µM (inactive) | – | > 100 µM (inactive) | > 100 µM (inactive) | > 100 µM (inactive) | > 100 µM (inactive) | > 100 µM (inactive) | > 100 µM (inactive) | > 100 µM (inactive) | > 100 µM (inactive) | > 100 µM (inactive) | > 100 µM (inactive) | > 100 µM (inactive) | > 100 µM (inactive) | > 100 µM (inactive)
